Assay results from patent US4277605A, “Chemical compounds” (priority 1980, dated 1981).

Tests used:
[1] = Antidiarrheal activity, castor oil test in rats (modified Niemegeers); format: in vivo, male Sprague-Dawley rats; conditions: for Antidiarrheal Activity ED50 (95% Confidence Limits) Castor Oil Test in Rats: 60 min; for ED50: Rattus norvegicus; for separation between antidiarrheal and analgetic activity (in words): from RAS; for RAS (Relative Antidiarrheal Specificity): Analgetic ED50 divided by the Antidiarrheal ED50, oral
Method: A modification of the castor oil test described by Niemegeers [Arzneim.-Forsch., 22, 516-518 (1972)] was used. Male Sprague-Dawley rats (180-220 g) were dosed orally (in one case, subcutaneously) with a test compound or vehicle 1 hour before receiving a standard dose of castor oil orally (3 ml/rat). The rats were individually caged and examined for the presence of diarrhea hourly. Control animals had 100% incidence of diarrhea 1 hour after administering the castor oil. The percentage of rats protected from diarrhea was calculated 1 hour after the castor oil. Six rats were used per dose level.
(§1) Morphine sulfate was dissolved in distilled water.

[2] = Suppression of body weight loss due to abstinence in withdrawn morphine-dependent rats; conditions: oral administration, FIG. 1
[3] = Suppression of withdrawal jumping due to abstinence in withdrawn morphine-dependent mice
[4] = Analgetic activity, radiant heat method (Rat Tail Flick Test); format: in vivo, male Sprague-Dawley rats; conditions: Table I, oral, rats; for ED50: Rattus norvegicus, read-out: Analgetic Activity Rat Tail Flick ED50 (95% Confidence Limits)
Method: Analgetic activity was determined by the radiant heat method (Rat Tail Flick Test) of D'Amour and Smith [J. Pharm. Exp. Ther., 72, 74-79 (1941)] in Sprague-Dawley male rats (140-180 g). An all or none response was used to determine the dose of test material which produced at least a 100 percent increase in predose response time in 50 percent of the test animals (ED50). The ED50 values were based on at least 3 doses per drug (6 rats per dose level) and calculated by means of the Finney Dose Response procedure [Finney, D. J., Probit Analysis, University Press, Cambridge, England (1971)].
as §1

[5] = high oral doses (40-60 mg); cited from earlier work
[6] = even in its salt forms; cited from earlier work
[7] = Table II, separate test, oral administration
[8] = Table I, oral, rats, 1 hour after castor oil, read-out: Antidiarrheal Activity Castor Oil Test in Rats ED50 (95% Confidence Limits)
[9] = Table II, d,l-Ia(1) subcutaneous, Ib(1) isomers oral

CN1CC[C@]23CCC(=O)C[C@H]2[C@H]1Cc1ccc(O)cc13 [d-Ib(1), d-3-Hydroxy-N-methyl-7-oxomorphinan]
Antidiarrheal Activity ED50 (95% Confidence Limits) Castor Oil Test in Rats [1, 7]: < 1

CN1CC[C@]23CCC(=O)C[C@H]2[C@H]1Cc1ccc(O)cc13 (relative stereo) [d,l-Ib(1), d,l-3-Hydroxy-7-oxo-N-methylmorphinan]
prevention of body weight loss due to morphine withdrawal / ability to substitute for morphine (in words) [2]: no significant prevention of body weight loss | Percent Suppression of Withdrawal Jumping ([3]; 9 mg/kg po): 0% | Percent Suppression of Withdrawal Jumping ([3]; 27 mg/kg po): 0% | suppressant action on withdrawal jumping (in words) ([3]; oral, doses as high as 27 mg/kg): No suppressant action | ED50 ([1]; 1 h, Table II, separate test, oral administration, read-out: Antidiarrheal Activity ED50 (95% Confidence Limits) Castor Oil Test in Rats): 1.08 mg/kg | ED50 [1, 8]: 1.41 mg/kg | separation between antidiarrheal and analgetic activity (in words) ([1]; oral, rats): excellent separation between antidiarrheal and analgetic activity | ED50 [4]: > 150 mg/kg

CN1CC[C@]23CCC(=O)C[C@@H]2[C@H]1Cc1ccc(O)cc13 (relative stereo) [d,l-Ia(1), d,l-3-Hydroxy-7-oxo-N-methylisomorphinan]
ED50 ([1]; sc, 1 h, Table II, separate test, subcutaneous administration, read-out: Antidiarrheal Activity ED50 (95% Confidence Limits) Castor Oil Test in Rats): 0.56 mg/kg | antidiarrheal potency (in words) [1, 9]: potent antidiarrheal agent

COc1ccc2c3c1O[C@H]1C(=O)CC[C@@]4(O)[C@@H](C2)N(C)CC[C@]314 [Oxycodone]
Percent Suppression of Withdrawal Jumping ([3]; 10 mg/kg po): 100%

CN1CC[C@]23c4c5ccc(O)c4O[C@H]2[C@@H](O)C=C[C@H]3[C@H]1C5 [Morphine SO4]
ED50, Suppression of Withdrawal Jumping ([3]; sc, limits (0.9-3.1) printed on next line): 1.8 | RAS (Relative Antidiarrheal Specificity) ([1]; rats): 14 | Antidiarrheal Activity Castor Oil Test in Rats ED50 (95% Confidence Limits) ([1]; Table I, oral, rats, 1 hour after castor oil): 2.2 (1.5-3.1) mg/kg | separation between antidiarrheal and analgetic activity (in words) ([1]; oral, rats): poor separation between antidiarrheal and analgetic activity | Analgetic Activity Rat Tail Flick ED50 (95% Confidence Limits) [4]: 30.5 (26.3-35.0) mg/kg

CN1CC[C@]23CCC(=O)C[C@H]2[C@H]1Cc1ccc(O)cc13 [l-Ib(1), l-3-Hydroxy-N-methyl-7-oxomorphinan]
Antidiarrheal Activity ED50 (95% Confidence Limits) Castor Oil Test in Rats [1, 7]: 0.64 (0.46-0.86) | antidiarrheal potency (in words) [1, 9]: most potent isomer

CCOC(=O)C1(c2ccccc2)CCN(CCC(C#N)(c2ccccc2)c2ccccc2)CC1 [Diphenoxylate]
typical opioid effects [5]: euphoria, suppression or morphine abstinence, and a morphine-like physical dependence after chronic administration | suppression of withdrawal jumping (in words) ([3]; oral dose of 9 mg/kg): suppressed withdrawal jumping | RAS (Relative Antidiarrheal Specificity) ([1]; rats): 102 | ED50 [1, 8]: 0.11 mg/kg | antidiarrheal potency (in words) ([1]; Table I, oral, rats): most potent antidiarrheal drug studied | improvement of RAS over morphine ([1]; oral, rats): tenfold | solubility (in words) [6]: highly insoluble | ED50 [4]: 11.2 mg/kg
